Laboratory results reported in patent publication US11834516B2, “Tumor-specific polypeptide and use thereof” (GENOIMMUNE THERAPEUTICS CO., LTD., priority 2016, dated 2023).

Legend:
[1] = system: H2087-KLMGIVYKV subcutaneous tumor; test: Lentivirus (nucleic acid) transfected DC vaccine in H2087-[…] subcutaneous tumor model; format: in vivo, NOD/SCID mice; conditions: lentivirus-infected DC, intradermal, 2 weekly injections
Text: Using automated DNA synthesizer, nucleotide sequences were synthesized by ligating nucleotides one by one based on a known sequence utilizing solid phase phosphite amide method. […] The lentiviral plasmids pHBLV-Puro containing the wild type polypeptide or the mutated polypeptides were separately constructed and named as pHBLV-Puro-[…], pHBLV-Puro-[…], pHBLV-Puro-[…], pHBLV-Puro-[…], pHBLV-Puro-[…], respectively. Thereafter, the five lentiviral plasmids were co-transfected into T293 cells with the pSPAX2 and pMD2G helper plasmids, respectively, and were packaged into lentiviruses containing the wild type polypeptide or the mutated polypeptides.
The established human lung (non-small cell) adenocarcinoma cell line H2087-[…] cells were cultured in DMEM medium supplemented with 10% fetal calf serum, 100 U/mL penicillin and streptomycin in an incubator at 37° C., 5% CO2. […] After appropriate dilution, 40 μl of the cell suspension was stained with 10 μl of 0.4% Trypan Blue and microscopically counted to prepare a tumor cell suspension at a concentration of 1×10^8 cells/ml. […] Using the vernier caliper, the tumor long diameter a and the short diameter b were measured every 2-3 days, and the tumor size was calculated as follows: tumor size=a*b*b/2. […]

HLA-A0201 = molecular target: T1, HLA-A0201 (Homo sapiens, UniProt P04439, D140Y/D185E/D98H/E176V/E277Q/G131W/G231S/I119V/I121R/I166T/I218V/L300P/L318F/N151K/N90K/P208A/P217A/Q86G/Q94H/R138H/R169H/T345S); test: T2 affinity verification of the polypeptides for HLA-A0201 by flow cytometry; format: binding; conditions: T2 affinity test
T1 construct: T2 cell expresses HLA-A0201; host or cells: T2 cells
Description: 2 duplicate wells per group were used. […] The cells were collected by centrifugation at 200 g for 5 minutes. After the collected cells were washed twice with PBS (Cat. No. 10010-031, GIBCO), the cells were directly incubated with anti-HLA-A 0201 FITC monoclonal antibody and incubated at 4 C for 30 minutes. The mean fluorescence intensity (MFI) was then detected and analyzed by flow cytometry (BD FACSJazz™) and its software, as shown in FIG. 1.
The fluorescence index (FI) is calculated using the following formula: FI=[Mean Fluorescence Intensity (MFI)sample−MFIbackground]/MFIbackground, wherein the MFIbackground represents the value without the polypeptide.

CD8+ T cells [2] = test: Cell expansion of CD8+ T cells stimulated by polypeptide-loaded DCs in vitro; format: cell-based, human; conditions: day 10 of co-culture of CD8+ T cells with polypeptide-loaded DCs; 2.5 × 10^6 cells before culture
Description: Dendritic cells (DCs) derived from monocytes were used as antigen presenting cells (APCs) to induce CTL responses against peptides presented on HLA. 2×10^8 peripheral blood mononuclear cells (PBMC) were isolated from 100 ml of peripheral blood of healthy volunteers with positive HLA-A0201 subtype using Ficoll lymphocyte separation solution (Cat. No. 17-1440-02, GE Healthcare). Mononuclear cells were obtained by adherent culture (3 hours), and CD8+ T cells in PBMC cells were screened with CD8 magnetic beads. GM-CSF (1000 U/ml) and IL-4 (1000 U/ml) were used to induce adherent monocytes into immature DCs, then IFN-γ (100 U/ml), LPS (10 ng/ml), and the polypeptides of the present invention as set forth in SEQ ID NOs: 2-5 were used to induce adherent cells into mature DC cells. The mature DC cells loaded with the polypeptides were irradiated (dose of 25 Gy) and co-cultured with CD8+ T cells of the volunteers (DC density was 5×10^5 cells/ml, CD8+ T cell density was 2×10^6 cells/ml, both of DCs and CD8+ T cells were mixed in equal volume and added to the well plate, i.e., co-cultured) with IL-21 added, then IL-2 and IL-7 were replenished after 3 days, and then IL-2 and IL-7 were replenished once on day 5 and 7, respectively. Co-cultured cells (co-cultured CD8+ T cells were activated to polypeptide-specific CD8+ T cells) were counted on day 10.

CD8+ T cells [3] = test: IFN-γ ELISPOTs, activation of CD8+ T cell immune response; format: cell-based, human; conditions: for Number of spots in the mutated polypeptide group / Number of spots in the wild type polypeptide group: CD8+ T cells primed with DCs loaded with the polypeptide, 20 hours; for Number of spots in the mutated polypeptide group: T2 cells loaded with mutated polypeptide; for Number of spots in the wild type polypeptide group: T2 cells loaded with wild type polypeptide KLMGIVNKV; for Conclusion (immunogenicity): IFN-γ ELISPOTs; for Folds (test/wild type): ratio of spot numbers, >2 = immunogenic
Text: The principle of ELISPOTs detection method is that CD8+ T cells can specifically recognize the complex of HLA-A0201 and a polypeptide, and with different polypeptide sequence, the T cell population recognizing the complex of HLA-A0201 and the polypeptide is also different. As T2 cells express HLA-A0201, CD8+ T cells can specifically recognize T2 cells loaded with mutated polypeptides, but cannot recognize T2 cells loaded with wild-type polypeptide. After specifically recognizing the complex of HLA-A0201 and the polypeptide, the polypeptide-specific CD8+ T cells are able to reactivate and secrete IFN-γ. The IFN-γ secreted by activation of CD8+ T cells is captured by a biotin-labeled secondary antibody. It is then bound to alkaline phosphatase or peroxide horseradish oxidase-labeled streptavidin. Spots are formed by the color development of the substrate. The number of spots represents the number of cells that are activated to secrete IFN-γ.
The cells co-cultured in Example 4 and T2 cells loaded with the mutated polypeptides or the wild-type polypeptide were added into human IFN-γ ELISPOTs plates for culture and detection. The spots formed by the ELISPOT test were finally counted. The requirement for the test polypeptide to be immunogenic is as follows: the number of spots (test polypeptide)/the number of spots (wild type polypeptide)>2, that is, the number of spots formed by the test polypeptide is more than twice the number of spots formed by the wild type polypeptide.
The cells co-cultured in Example 4 and T2 cells loaded with the mutated polypeptide […] (SEQ ID NO: 2) and its variable formats (SEQ ID NOs: 2-5) and the wild type polypeptide […] (SEQ ID NO: 6) were added into human IFN-γ ELISPOTs plates for culture, and subjected to ELISPOTs test (Mabtech, Cat. No. 3420-4APW-2) 20 hours later.

T2 cells = test: LDH release assay, specific killing activity of CD8+ T cells; format: cell-based, human; parameters: concentration or dose not given beside the values; conditions: T cells activated by the labelled polypeptide, 4 hours
Description: The following experiment was carried out according to the instructions of Pierce™ LDH Cytotoxicity Assay Kit (Thermo, Cat. No. 88953). The co-cultured cells in Example 4 were co-cultured with T2 cells loaded with mutated polypeptides or wild-type polypeptide or T2 cells without any loaded polypeptides. In the experiment, the maximum release well, the volume correction well, the medium control well, the spontaneous release well, the control of different ratios of effective cells to target cells (the ratio of the number of T cells to the T2 cell) and the like were set, and three duplicate wells were set in each group, and after 4 hours, 50 ul of the supernatant of the co-cultured cells was collected and added to 50 ul of LDH substrate mixture to catalyze the reaction of LDH substrate. After 30 minutes, 50 ul of reaction stop solution was added and read the 490 nm wavelength and the reference wavelength of 680 nm, and the killing activity of target cells against T2 cells were calculated based on the control wells.
The formula for calculating the killing activity is: Killing efficiency (%)=(test well−spontaneous release of effector cell−spontaneous release of target cell+medium well)/(maximum release of target cell−volume correction well−spontaneous release of target cell+medium well)×100%

[4] = target T2 loaded with KLMGIVYKV (SEQ ID NO: 2)
[5] = target T2 loaded with wild type KLMGIVNKV (SEQ ID NO: 6)

| Sequence | tumor suppressing effect [1] | affinity for HLA-A0201 (HLA-A0201) | Total number of cells in the well after culture (CD8+ T cells [2]) | Number of spots in the mutated polypeptide group (CD8+ T cells [3]) | Number of spots in the wild type polypeptide group (CD8+ T cells [3]) | Conclusion (immunogenicity) (CD8+ T cells [3]) | Folds (test/wild type) (CD8+ T cells [3]) | Killing efficiency, ratio of effective cells to target cells (1:1) (T2 cells; [4]) [%] | Killing efficiency, ratio of effective cells to target cells (10:1) (T2 cells; [4]) [%] | Killing efficiency, ratio of effective cells to target cells (1:1) (T2 cells; [5]) [%] | Killing efficiency, ratio of effective cells to target cells (10:1) (T2 cells; [5]) [%] |
| --- | --- | --- | --- | --- | --- | --- | --- | --- | --- | --- | --- |
| KLMGIVNKV [wild-type peptide fragment, amino acids 130-138 of the unmutated Twist neighbor protein] | no effect on the tumor | – | – | – | – | – | – | – | – | – | – |
| KLMGIVYKL | – | enhanced affinity for HLA-A0201 | 1.63 × 10^7 | 335 | 40 | immunogenic | 8.34 | 8.76 | 44.52 | 2.17 | 4.63 |
| KLMGIVYKV [9-amino-acid mutated TWIST Neighbor protein peptide (N136Y)] | – | does have a high affinity for HLA-A0201 | 1.32 × 10^7 | 316 | 31 | immunogenic | 10.01 | 7.69 | 38.29 | 2.33 | 5.03 |
| KMMGIVYKL | – | enhanced affinity for HLA-A0201 | 1.46 × 10^7 | 328 | 29 | immunogenic | 11.31 | 8.29 | 42.26 | 3.25 | 6.23 |
| KMMGIVYKV | – | enhanced affinity for HLA-A0201 | 1.37 × 10^7 | 323 | 37 | immunogenic | 8.73 | – | – | – | – |
